Earlier results on one compound are cited in patent US20090196863A1, “METHOD OF ANTIOXIDATION AND ANTIOXIDANT-FUNCTIONING WATER” (MIZ CO., LTD., priority 2001, published 2009).

The conditions of this series: normal temperature (20° C.) and atmospheric pressure.

For the compound `[HH]` [molecular hydrogen], the saturated solvent concentration entry is reported as “approximately 1.6 mg/L”.
